What was measured:
[1] = Table 1; K=[ML]/[M][L]; cited from earlier work
[2] = Table 1; K=[ML]/[M][L]; cited from earlier work; remark: listed apart in the source
[3] = Table 1; K=[ML]/[M][L]; cited from earlier work; remark: listed apart in the source
[4] = Table 1; K=[ML]/[M][L]; cited from earlier work; remark: listed apart in the source
[5] = test system: Aβ1-40 or Aβ1-42 SDS-resistant polymers; assay: Dissolution of in vitro Cu^2+-induced SDS-resistant Aβ polymers; assay type: biochemical, human; settings: polymers generated at pH 7.4
[6] = Table 1; K=[ML]/[M][L]; cited from earlier work; remark: listed apart in the source
[7] = Table 1; K=[ML]/[M][L]; cited from earlier work; remark: listed apart in the source
[8] = Table 1; K=[ML]/[M][L]; cited from earlier work; remark: listed apart in the source

For O=C(O)CN(CCN(CC(=O)O)CC(=O)O)CC(=O)O [EDTA, ethylenediaminetetra acetic acid], the “LogK, Al” value [1] is listed as 16.5, the “LogK, Cu” value [2] is listed as 18.8 and the “LogK, Mg” value [3] is listed as 8.9. The “LogK, Ca” value [4] was 10.7, the “effect of chelators on amount of SDS-resistant polymers” value [5] was “less effective in destabilizing the polymers” and the “LogK, Fe” value [6] was 14.3. For the same compound, the “LogK, Co” value [7] was 16.5 and the “LogK, Zn” value [8] was 16.5.

— patent US20020082273A1, “Agents for use in the treatment of alzheimer's disease” (priority 1998, published 2002)
